In PMC5518309 (ChemMedChem, 2014):
Numbered stars: 1 amine (or outer) side, 2 acyl side, 3 side chain; on linkers, the order of the positions; unused ones are H or OH. Side chains are listed from the residue outwards. Peptide text beside a SMILES is read from it. * marks the point of attachment. X1 = CN(C)c1ccc2c(c1)Oc1cc(N(C)C)ccc1C21OC(=O)c2ccc(C(=O)*)cc21; Arachidoyl = CCCCCCCCCCCCCCCCCCCC(=O)*; γGlu = O=C(O)[C@H](CCC(=O)[*:2])N[*:1]; Lauroyl = CCCCCCCCCCCC(=O)*; Octanoyl = CCCCCCCC(=O)*; Propionyl = CCC(=O)*

Key:
[1] = Stability test in human blood plasma; assay type: in vitro ADME; settings: human
[2] = Metabolic stability in porcine liver homogenates; assay type: in vitro ADME; settings: pig, porcine liver homogenate (supernatant)
hY4R = hY4R (Homo sapiens, UniProt P50391); assay: Inositol phosphate accumulation assay, hY4R; assay type: cell-based; settings: for Emax: read-out: hY4R Emax
hY1R = biological target: T1, hY1R (Homo sapiens, UniProt P25929); assay: Inositol phosphate accumulation assay, hY1R; assay type: cell-based; settings: for Emax: read-out: hY1R Emax
T1 sequence (P25929 1-384): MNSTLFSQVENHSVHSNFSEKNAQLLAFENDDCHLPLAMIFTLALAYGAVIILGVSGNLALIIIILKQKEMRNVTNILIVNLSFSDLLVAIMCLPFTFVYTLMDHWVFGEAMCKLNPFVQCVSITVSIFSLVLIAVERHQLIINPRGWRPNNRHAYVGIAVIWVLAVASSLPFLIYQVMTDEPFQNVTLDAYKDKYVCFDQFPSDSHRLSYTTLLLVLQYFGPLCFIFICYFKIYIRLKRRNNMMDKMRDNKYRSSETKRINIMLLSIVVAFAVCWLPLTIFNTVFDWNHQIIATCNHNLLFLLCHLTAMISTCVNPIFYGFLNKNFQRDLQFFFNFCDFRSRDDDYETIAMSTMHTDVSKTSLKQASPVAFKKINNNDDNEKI

hY2R = biological target: T2, hY2R (Homo sapiens, UniProt P49146); assay: Inositol phosphate accumulation assay, hY2R; assay type: cell-based; settings: for Emax: read-out: hY2R Emax
T2 sequence (P49146 1-381): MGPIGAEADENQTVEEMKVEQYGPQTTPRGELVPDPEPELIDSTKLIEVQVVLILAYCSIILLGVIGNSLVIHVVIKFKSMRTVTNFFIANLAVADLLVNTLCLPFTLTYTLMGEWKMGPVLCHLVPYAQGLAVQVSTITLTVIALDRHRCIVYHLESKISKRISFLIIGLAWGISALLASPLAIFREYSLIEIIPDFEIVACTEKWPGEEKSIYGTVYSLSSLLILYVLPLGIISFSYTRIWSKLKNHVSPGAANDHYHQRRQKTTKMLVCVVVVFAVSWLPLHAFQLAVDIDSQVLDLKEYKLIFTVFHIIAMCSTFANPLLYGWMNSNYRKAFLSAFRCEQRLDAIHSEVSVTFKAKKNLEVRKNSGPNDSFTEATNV

hY5R = biological target: T3, hY5R (Homo sapiens, UniProt Q15761); assay: Inositol phosphate accumulation assay, hY5R; assay type: cell-based; settings: for Emax: read-out: hY5R Emax
T3 sequence (Q15761 1-445): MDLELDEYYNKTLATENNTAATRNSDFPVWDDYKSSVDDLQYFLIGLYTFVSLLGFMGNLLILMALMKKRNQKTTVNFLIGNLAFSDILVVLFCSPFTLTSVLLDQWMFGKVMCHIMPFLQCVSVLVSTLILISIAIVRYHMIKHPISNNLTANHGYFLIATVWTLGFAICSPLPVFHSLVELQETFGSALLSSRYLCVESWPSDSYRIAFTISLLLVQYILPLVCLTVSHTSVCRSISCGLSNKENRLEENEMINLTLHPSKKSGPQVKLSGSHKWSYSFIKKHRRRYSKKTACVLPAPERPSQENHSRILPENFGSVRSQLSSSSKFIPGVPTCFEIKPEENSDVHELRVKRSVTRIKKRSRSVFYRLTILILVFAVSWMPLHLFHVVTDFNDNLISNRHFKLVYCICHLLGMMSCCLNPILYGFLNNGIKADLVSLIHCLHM

Chain of hY4R (P50391 whole entry): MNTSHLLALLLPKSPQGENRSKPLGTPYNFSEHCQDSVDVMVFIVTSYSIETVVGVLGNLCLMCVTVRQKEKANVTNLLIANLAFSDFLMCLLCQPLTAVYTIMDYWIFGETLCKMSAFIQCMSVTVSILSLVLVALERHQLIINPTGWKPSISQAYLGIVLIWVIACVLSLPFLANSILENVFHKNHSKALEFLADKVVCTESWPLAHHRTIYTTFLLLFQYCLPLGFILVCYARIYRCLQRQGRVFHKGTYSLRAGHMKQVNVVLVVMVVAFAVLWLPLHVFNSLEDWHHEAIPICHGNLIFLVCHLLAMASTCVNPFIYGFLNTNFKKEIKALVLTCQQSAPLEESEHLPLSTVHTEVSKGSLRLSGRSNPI

Row | SMILES | half-life at 10 μM [1] | half-life at 10 μM [2] | EC50 (hY4R) | Emax (hY4R) | EC50 (hY1R) | Emax (hY1R) | EC50 (hY2R) | Emax (hY2R) | EC50 (hY5R) | Emax (hY5R)
1 | CC[C@H](C)[C@H](NC(=O)[C@H](Cc1ccc(O)cc1)NC(=O)[C@H](CCCNC(=N)N)NC(=O)[C@H](CCCNC(=N)N)NC(=O)[C@H](CC(C)C)NC(=O)[C@H](CC(=O)O)NC(=O)[C@H](C)NC(=O)[C@H](C)NC(=O)[C@H](Cc1ccc(O)cc1)NC(=O)[C@H](CCC(N)=O)NC(=O)[C@H](C)NC(=O)[C@H](CCSC)NC(=O)[C@H](CCC(N)=O)NC(=O)[C@H](CCC(=O)O)NC(=O)[C@@H]1CCCN1C(=O)[C@@H](NC(=O)[C@H](C)NC(=O)[C@H](CC(N)=O)NC(=O)[C@H](CC(=O)O)NC(=O)CNC(=O)[C@@H]1CCCN1C(=O)[C@H](Cc1ccc(O)cc1)NC(=O)[C@@H](NC(=O)[C@@H]1CCCN1C(=O)[C@H](CCC(=O)O)NC(=O)[C@H](CC(C)C)NC(=O)[C@@H]1CCCN1)C(C)C)[C@@H](C)O)C(=O)N[C@@H](CC(N)=O)C(=O)N[C@@H](CCCCNC(=O)c1ccc2c(c1)C1(OC2=O)c2ccc(N(C)C)cc2Oc2cc(N(C)C)ccc21)C(=O)N[C@@H](CC(C)C)C(=O)N[C@H](C(=O)N[C@@H](CCCNC(=N)N)C(=O)N1CCC[C@H]1C(=O)N[C@@H](CCCNC(=N)N)C(=O)N[C@@H](Cc1ccc(O)cc1)C(N)=O)[C@@H](C)O [compound 20, [K^30(TAMRA)]hPP2–36] (H-PLEPVYPGDNATPEQMAQYAADLRRYINK(X1)LTRPRY-NH2) | ~100 h | 19.7 ± 0.4 h |  |  |  |  |  |  |  | 
2 | CCCCCCCCCCCC(=O)N[C@@H](CCC(=O)NCCCC[C@H](NC(=O)[C@H](C)NC(=O)[C@H](Cc1ccc(O)cc1)NC(=O)[C@H](CCC(N)=O)NC(=O)[C@H](C)NC(=O)[C@H](CCSC)NC(=O)[C@H](CCC(N)=O)NC(=O)[C@H](CCC(=O)O)NC(=O)[C@@H]1CCCN1C(=O)[C@@H](NC(=O)[C@H](C)NC(=O)[C@H](CC(N)=O)NC(=O)[C@H](CC(=O)O)NC(=O)CNC(=O)[C@@H]1CCCN1C(=O)[C@H](Cc1ccc(O)cc1)NC(=O)[C@@H](NC(=O)[C@@H]1CCCN1C(=O)[C@H](CCC(=O)O)NC(=O)[C@H](CC(C)C)NC(=O)[C@@H]1CCCN1)C(C)C)[C@@H](C)O)C(=O)N[C@@H](CC(=O)O)C(=O)N[C@@H](CC(C)C)C(=O)N[C@@H](CCCNC(=N)N)C(=O)N[C@@H](CCCNC(=N)N)C(=O)N[C@@H](Cc1ccc(O)cc1)C(=O)N[C@H](C(=O)N[C@@H](CC(N)=O)C(=O)N[C@@H](CCSC)C(=O)N[C@@H](CC(C)C)C(=O)N[C@H](C(=O)N[C@@H](CCCNC(=N)N)C(=O)N1CCC[C@H]1C(=O)N[C@@H](CCCNC(=N)N)C(=O)N[C@@H](Cc1ccc(O)cc1)C(N)=O)[C@@H](C)O)[C@@H](C)CC)C(=O)O [compound 11, [K^22(E-Laur)]hPP2–36] (H-PLEPVYPGDNATPEQMAQYAK([γGlu-Lauroyl])DLRRYINMLTRPRY-NH2) |  |  | 1.5 nM | 86 ± 5% | 204 nM | 87 ± 5% | 49.6 nM | 101 ± 7% | 14.9 nM | 87 ± 5%
3 | CCC(=O)N[C@@H](CCC(=O)NCCCC[C@H](NC(=O)[C@H](CC(N)=O)NC(=O)[C@@H](NC(=O)[C@H](Cc1ccc(O)cc1)NC(=O)[C@H](CCCNC(=N)N)NC(=O)[C@H](CCCNC(=N)N)NC(=O)[C@H](CC(C)C)NC(=O)[C@H](CC(=O)O)NC(=O)[C@H](C)NC(=O)[C@H](C)NC(=O)[C@H](Cc1ccc(O)cc1)NC(=O)[C@H](CCC(N)=O)NC(=O)[C@H](C)NC(=O)[C@H](CCSC)NC(=O)[C@H](CCC(N)=O)NC(=O)[C@H](CCC(=O)O)NC(=O)[C@@H]1CCCN1C(=O)[C@@H](NC(=O)[C@H](C)NC(=O)[C@H](CC(N)=O)NC(=O)[C@H](CC(=O)O)NC(=O)CNC(=O)[C@@H]1CCCN1C(=O)[C@H](Cc1ccc(O)cc1)NC(=O)[C@@H](NC(=O)[C@@H]1CCCN1C(=O)[C@H](CCC(=O)O)NC(=O)[C@H](CC(C)C)NC(=O)[C@@H]1CCCN1)C(C)C)[C@@H](C)O)[C@@H](C)CC)C(=O)N[C@@H](CC(C)C)C(=O)N[C@H](C(=O)N[C@@H](CCCNC(=N)N)C(=O)N1CCC[C@H]1C(=O)N[C@@H](CCCNC(=N)N)C(=O)N[C@@H](Cc1ccc(O)cc1)C(N)=O)[C@@H](C)O)C(=O)O [15a, [K^30(E-Prop)]hPP2–36] (H-PLEPVYPGDNATPEQMAQYAADLRRYINK([γGlu-Propionyl])LTRPRY-NH2) |  |  | 1.3 nM | 88 ± 4% | > 1000 nM | 99 ± 4% | > 1000 nM | 88 ± 6% | 937 nM | 70 ± 3%
4 | CCCCCCCCCCCCCCCCCCCC(=O)N[C@@H](CCC(=O)NCCCC[C@H](NC(=O)[C@H](C)NC(=O)[C@H](Cc1ccc(O)cc1)NC(=O)[C@H](CCC(N)=O)NC(=O)[C@H](C)NC(=O)[C@H](CCSC)NC(=O)[C@H](CCC(N)=O)NC(=O)[C@H](CCC(=O)O)NC(=O)[C@@H]1CCCN1C(=O)[C@@H](NC(=O)[C@H](C)NC(=O)[C@H](CC(N)=O)NC(=O)[C@H](CC(=O)O)NC(=O)CNC(=O)[C@@H]1CCCN1C(=O)[C@H](Cc1ccc(O)cc1)NC(=O)[C@@H](NC(=O)[C@@H]1CCCN1C(=O)[C@H](CCC(=O)O)NC(=O)[C@H](CC(C)C)NC(=O)[C@@H]1CCCN1)C(C)C)[C@@H](C)O)C(=O)N[C@@H](CC(=O)O)C(=O)N[C@@H](CC(C)C)C(=O)N[C@@H](CCCNC(=N)N)C(=O)N[C@@H](CCCNC(=N)N)C(=O)N[C@@H](Cc1ccc(O)cc1)C(=O)N[C@H](C(=O)N[C@@H](CC(N)=O)C(=O)N[C@@H](CCSC)C(=O)N[C@@H](CC(C)C)C(=O)N[C@H](C(=O)N[C@@H](CCCNC(=N)N)C(=O)N1CCC[C@H]1C(=O)N[C@@H](CCCNC(=N)N)C(=O)N[C@@H](Cc1ccc(O)cc1)C(N)=O)[C@@H](C)O)[C@@H](C)CC)C(=O)O [compound 13, [K^22(E-Ara)]hPP2–36] (H-PLEPVYPGDNATPEQMAQYAK([γGlu-Arachidoyl])DLRRYINMLTRPRY-NH2) |  |  | 2.7 nM | 93 ± 6% | 11.3 nM | 101 ± 6% | 0.9 nM | 90 ± 5% | 0.8 nM | 75 ± 6%
5 | CCCCCCCC(=O)N[C@@H](CCC(=O)NCCCC[C@H](NC(=O)[C@H](CC(N)=O)NC(=O)[C@@H](NC(=O)[C@H](Cc1ccc(O)cc1)NC(=O)[C@H](CCCNC(=N)N)NC(=O)[C@H](CCCNC(=N)N)NC(=O)[C@H](CC(C)C)NC(=O)[C@H](CC(=O)O)NC(=O)[C@H](C)NC(=O)[C@H](C)NC(=O)[C@H](Cc1ccc(O)cc1)NC(=O)[C@H](CCC(N)=O)NC(=O)[C@H](C)NC(=O)[C@H](CCSC)NC(=O)[C@H](CCC(N)=O)NC(=O)[C@H](CCC(=O)O)NC(=O)[C@@H]1CCCN1C(=O)[C@@H](NC(=O)[C@H](C)NC(=O)[C@H](CC(N)=O)NC(=O)[C@H](CC(=O)O)NC(=O)CNC(=O)[C@@H]1CCCN1C(=O)[C@H](Cc1ccc(O)cc1)NC(=O)[C@@H](NC(=O)[C@@H]1CCCN1C(=O)[C@H](CCC(=O)O)NC(=O)[C@H](CC(C)C)NC(=O)[C@@H]1CCCN1)C(C)C)[C@@H](C)O)[C@@H](C)CC)C(=O)N[C@@H](CC(C)C)C(=O)N[C@H](C(=O)N[C@@H](CCCNC(=N)N)C(=O)N1CCC[C@H]1C(=O)N[C@@H](CCCNC(=N)N)C(=O)N[C@@H](Cc1ccc(O)cc1)C(N)=O)[C@@H](C)O)C(=O)O [16a, [K^30(E-Capr)]hPP2–36] (H-PLEPVYPGDNATPEQMAQYAADLRRYINK([γGlu-Octanoyl])LTRPRY-NH2) |  |  | 1.2 nM | 82 ± 4% | > 1000 nM | 84 ± 6% | > 1000 nM | 85 ± 5% | 386 nM | 75 ± 5%
